Consider one molecule from US20020091265A1, “4-phenyl-pyridine derivatives” (priority 1999, published 2002).

Data set [1] relates to motion sickness in the suncus murinus. As to the kind of experiment: Model of motion sickness in suncus murinus. To be noted: po. The class given is in vivo.
The test system of data set [2] is foot-tapping behaviour induced in gerbils with an NK1 receptor agonist. As to the kind of experiment: Foot-tapping behaviour induced by i.c.v. NK1 receptor agonist. The class given is in vivo, gerbil. The method, then: In vivo the compound of formula Ia antagonises foot-tapping behaviour induced in gerbils with intracerebroventricular (i.c.v.) injections of an NK1 receptor agonist. The dose for this compound calculated to inhibit 50% of the foot-tapping behaviour following oral administration was 0.2 mg/kg.
In vivo 2-(3,5-bis-trifluoromethyl-phenyl)-N-methyl-N-[6-(4-methyl-piperazin-1-yl)-4-o-tolyl-pyridin-3-yl]-isobutyramide antagonises foot-tapping behaviour induced in Gerbils with intracerebroventricular (i.c.v.) injections of an NK1 receptor agonist. The dose of this compound calculated to inhibit 50% of the foot-tapping behaviour following oral administration was 0.5 mg/kg.
In vivo the compound of formula Ic antagonises foot-tapping behaviour induced in Gerbils with intracerebroventricular (i.c.v.) injections of an NK1 receptor agonist. The dose of this compound calculated to inhibit 50% of the foot-tapping behaviour following oral administration was 1.5 mg/kg.

A further data set concerns the target T1, NK3 receptors (Homo sapiens, UniProt P29371).
T1 sequence (P29371 1-465): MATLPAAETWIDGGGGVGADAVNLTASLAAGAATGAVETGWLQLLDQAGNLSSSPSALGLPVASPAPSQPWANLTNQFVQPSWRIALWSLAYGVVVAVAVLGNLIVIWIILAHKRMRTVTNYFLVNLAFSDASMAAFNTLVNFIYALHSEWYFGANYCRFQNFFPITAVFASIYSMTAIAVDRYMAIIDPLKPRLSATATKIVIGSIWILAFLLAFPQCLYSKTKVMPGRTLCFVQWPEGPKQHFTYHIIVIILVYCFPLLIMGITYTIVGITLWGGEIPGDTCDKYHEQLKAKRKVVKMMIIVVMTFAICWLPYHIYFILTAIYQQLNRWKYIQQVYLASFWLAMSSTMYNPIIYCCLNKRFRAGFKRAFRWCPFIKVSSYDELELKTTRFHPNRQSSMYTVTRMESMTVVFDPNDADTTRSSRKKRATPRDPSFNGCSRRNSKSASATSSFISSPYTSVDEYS
Put plainly: Selectivity for NK1 compared to NK3 receptors. It is filed as binding.

For data set [3], the target named is T2, human NK1 receptor (Homo sapiens, UniProt P25103). As to the kind of experiment: [3H]substance P binding at human NK1 receptors in CHO cells. The settings on record: [3H]substance P 0.6 nM, 60 min room temperature, read-out: affinity (pKi) for the human NK1 receptor (converted). The method, then: All assays were performed in triplicate in at least2 separate experiments.

Data set [4] in a line: Pharmacokinetic parameters in rats. The settings on record: rat, in vivo.
Data set [5] deals with over 50 other binding sites. Put plainly: Selectivity for NK1 compared to over 50 other binding sites.
The target of another data set is T3, NK2 receptors (Homo sapiens, UniProt P21452).
T3 sequence (P21452 1-398): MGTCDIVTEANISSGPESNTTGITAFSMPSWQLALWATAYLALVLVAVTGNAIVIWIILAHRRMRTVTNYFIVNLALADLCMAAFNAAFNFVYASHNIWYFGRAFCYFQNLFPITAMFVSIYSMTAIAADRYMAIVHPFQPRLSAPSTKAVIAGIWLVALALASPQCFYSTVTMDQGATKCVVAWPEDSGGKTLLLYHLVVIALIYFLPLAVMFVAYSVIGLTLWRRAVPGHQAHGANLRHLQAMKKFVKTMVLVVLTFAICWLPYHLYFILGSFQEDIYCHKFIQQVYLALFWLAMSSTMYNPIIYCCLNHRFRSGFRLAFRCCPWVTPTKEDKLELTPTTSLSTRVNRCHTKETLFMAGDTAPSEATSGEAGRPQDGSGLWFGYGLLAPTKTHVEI
As to the kind of experiment: Selectivity for NK1 compared to NK2 receptors. The class given is binding.

Data set [6] concerns emesis induced in ferrets by emetogens. Put plainly: Antiemetic test in ferrets. It is filed as in vivo, ferret. How it is done: The compound of formula 1a, 2-(3,5-Bis-trifluoromethyl-phenyl)-N-methyl-N-(6-morpholin-4-yl-4-o-tolyl-pyridin-3-yl)-isobutyramide, was also tested as an antiemetic agent in ferrets.
2-(3,5-bis-trifluoromethyl-phenyl)-N-methyl-N-[6-(4-methyl-piperazin-1-yl)-4-o-tolyl-pyridin-3-yl]-isobutyramide was also tested as an antiemetic agent in Ferrets.

Data set [7] deals with T2, human NK1 receptor. Put plainly: Substance P induced Ca2+ influx in CHO cells (FLIPR). Details: expressed in transfected cells; host or cells: CHO cells. It is filed as cell-based. The source says: The activity in vitro of the compound of formula 1a was examined by studying its effect on substance P induced Ca^2+ influxes in CHO cells expressing the recombinant human NK1 receptor. In these cells, substance P causes a concentration dependent influx of Ca^2+ which can be measured using FLIPR technology.
The activity of 2-(3,5-bis-trifluoromethyl-phenyl)-N-methyl-N-[^6-(^4-methyl-piperazin-1-yl)-4-o-tolyl-pyridin-3-yl]-isobutyramide in vitro was examined by studying its effect on substance P induced Ca^2+influxes in CHO cells expressing the recombinant human NK1 receptor. In these cells, substance P causes a concentration dependent influx of Ca^2+ which can be measured using FLIPR technology.
The activity of the compound of formula Ic in vitro was examined by studying its effect on substance P induced Ca^2+ influxes in CHO cells expressing the recombinant human NK1 receptor. In these cells, substance P causes a concentration dependent influx of Ca^2+ which can be measured using FLIPR technology.

The next data set can be described thus: in vivo. To be noted: dog.

T2 sequence (P25103 whole entry): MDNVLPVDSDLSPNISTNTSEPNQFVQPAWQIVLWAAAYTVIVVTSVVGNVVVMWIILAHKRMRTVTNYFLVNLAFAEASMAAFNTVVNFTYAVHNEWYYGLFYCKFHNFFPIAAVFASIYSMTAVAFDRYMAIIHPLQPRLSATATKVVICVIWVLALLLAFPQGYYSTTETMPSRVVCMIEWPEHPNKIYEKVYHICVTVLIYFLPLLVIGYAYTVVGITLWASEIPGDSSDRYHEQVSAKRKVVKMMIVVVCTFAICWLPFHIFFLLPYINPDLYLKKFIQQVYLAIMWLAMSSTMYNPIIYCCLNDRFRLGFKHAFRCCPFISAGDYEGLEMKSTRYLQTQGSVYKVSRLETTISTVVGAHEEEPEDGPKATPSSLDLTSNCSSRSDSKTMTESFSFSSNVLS
From the text for in vivo: The pharmacokinetic parameters have been evaluated in both rats and dogs.

Turning to `Cc1ccccc1-c1cc(N2CCN(C)CC2)ncc1N(C)C(=O)C(C)(C)c1cc(C(F)(F)F)cc(C(F)(F)F)c1` [Ib, 2-(3,5-bis-trifluoromethyl-phenyl)-N-methyl-N-[6-(4-methyl-piperazin-1-yl)-4-o-tolyl-pyridin-3-yl]-isobutyramide], the ED50 stood at 0.2 mg/kg in data set [1] and 0.1 mg/kg in [6] (Mustela putorius, po, read-out: ED50 against apomorphine-induced emesis). In addition, the “total plasma concentration required to completely block the foot-tapping behaviour” value in [2] turned out to be 30 ng/mL. Besides, the “dose calculated to inhibit 50% of the foot-tapping behaviour” value in data set [2] (oral administration) is recorded as 0.5 mg/kg. The “selectivity for the NK1 receptor compared to NK3 receptors” value on NK3 receptors is given as “over 2 orders of magnitude”. The Ki at human NK1 receptor [3] was 1 nM. Besides, the clearance was 3.7 mL/min/kg in [4] and 9.2 mL/min/kg in the data set “in vivo”. Further, the bioavailability in data set [4] (po) was found to be 45%; in the data set “in vivo” (po), 75%. The half-life in data set [4] (read-out: terminal half-life (converted)) is 24 h; in the data set “in vivo”, 18 h. In addition, the Vd was determined as 5.7 L/kg in [4] (read-out: volume of distribution) and 15 L/kg in “in vivo”. In addition, in data set [5], the “selectivity for the NK1 receptor compared to over 50 other binding sites” value is recorded as “over 2 orders of magnitude”. Further, the “selectivity for the NK1 receptor compared to NK2 receptors” value on NK2 receptors was “over 2 orders of magnitude”. Further, the “emesis induced by all emetogens (apomorphine, morphine, ipecacuanha, cisplatin, CuSO4)” value in data set [6] (0.3 mg/kg p.o., 2 hours before the emetogen) is recorded as “completely blocked”. Also, the “effect on substance P induced Ca2+ influxes” value on human NK1 receptor [7] (CHO cells expressing recombinant human NK1 receptor, FLIPR) is on record as “inhibited this effect in a concentration dependent manner”. For the same molecule, the “type of antagonism at human recombinant NK1 receptors” value at human NK1 receptor [7] (from Ca2+ influx data) was “competitive antagonist”.
